The compounds below were run on CXCL10 production (assay: CXCL10 production inhibition test). Conditions: Endothelial cell; test compound 0.1 μmol/L; human umbilical vein-derived endothelial cells; TNFα 10 ng/mL; supernatant 72 hours after stimulation; ELISA; read-out: Rate of inhibition of CXCL10 production.
Format: cell-based
Method: (CXCL10 Production Inhibition Test)
0.5×10^4 or 1×10^4 human umbilical vein-derived endothelial cells were suspended in 100 μL of an EGM-2 BulletKit medium (without GA) or a Medium-200 medium supplemented with an EGM-2 SingleQuots kit (without GA), inoculated to a 96-well plate and cultured overnight. 100 μL of a solution of each test compound diluted with the same medium as that used in the inoculation was added to the cultured cells (final concentration of the test compound: 0.1 μmol/L). 1 hour thereafter, TNFα was added thereto at a final concentration of 10 ng/mL. 72 hours after the stimulation, the supernatant was recovered, and the amount of CXCL10 produced in the culture supernatant was determined using an ELISA kit (Peprotech, 900-109).
The rate of inhibition was calculated according to the following expression: Rate of inhibition (%)=100−(Amount of CXCL10 produced in the presence of the test compound/Amount of CXCL10 produced in the absence of the test compound)×100
In the case of CCn1c(=O)cc(C2CC2)c2cc(-n3c(-c4ccc(C(F)(F)F)cc4)cn(C)c3=O)ccc21 [Example 267, 4-cyclopropyl-1-ethyl-6-(3-methyl-2-oxo-5-(4-(trifluoromethyl)phenyl)-2,3-dihydro-1H-imidazol-1-yl)quinolin-2(1H)-one], the inhibition at 0.1 µM is reported as no less than 50%.
With CCn1c(=O)cc(C2CC2)c2cc(-n3c(-c4ccc(C(F)(F)F)cc4)c[nH]c3=O)ccc21 [Example 268, 4-cyclopropyl-1-ethyl-6-(2-oxo-5-(4-(trifluoromethyl)phenyl)-2,3-dihydro-1H-imidazol-1-yl)quinolin-2(1H)-one] the inhibition at 0.1 µM was no less than 50%.
With CCn1c(=O)cc(C2CC2)c2cc(-n3c(-c4ccc(Cl)cc4)cn(C)c3=O)ccc21 [Example 269, 6-(5-(4-chlorophenyl)-3-methyl-2-oxo-2,3-dihydro-1H-imidazol-1-yl)-4-cyclopropyl-1-ethylquinolin-2(1H)-one] the inhibition at 0.1 µM was no less than 50%.
CCn1c(=O)cc(N2CCOCC2)c2cc(-n3c(-c4ccc(C(F)(F)F)cc4)cn(C)c3=O)ccc21 [Example 270, 1-ethyl-6-(3-methyl-2-oxo-5-(4-(trifluoromethyl)phenyl)-2,3-dihydro-1H-imidazol-1-yl)-4-(morpholin-4-yl)quinolin-2(1H)-one] gave an inhibition at 0.1 µM of no less than 50%.
Compound CCn1c(=O)cc(C2CC2)c2cc(-n3c(-c4ccc(Cl)cc4)c[nH]c3=O)ccc21 [Example 271, 6-(5-(4-chlorophenyl)-2-oxo-2,3-dihydro-1H-imidazol-1-yl)-cyclopropyl-1-ethylquinolin-2(1H)-one] has an inhibition at 0.1 µM of no less than 50%.
Work on CCn1c(=O)cc(N2CCOCC2)c2cc(-n3c(-c4ccc(C(F)(F)F)cc4)c[nH]c3=O)ccc21 [Example 272, 1-ethyl-6-(2-oxo-5-(4-(trifluoromethyl)phenyl)-2,3-dihydro-1H-imidazol-1-yl)-4-(morpholin-4-yl)quinolin-2(1H)-one] yielded an inhibition at 0.1 µM of no less than 50%.
CCn1c(=O)cc(N2CCOCC2)c2cc(-n3c(-c4ccc(C)cc4)cn(C)c3=O)ccc21 [Example 273, 1-ethyl-6-(3-methyl-5-(4-methylphenyl)-2-oxo-2,3-dihydro-1H-imidazol-1-yl)-4-(morpholin-4-yl)quinolin-2(1H)-one] was tested, and the inhibition at 0.1 µM was no less than 50%.
For CCn1c(=O)cc(N2CCOCC2)c2cc(-n3c(-c4ccc(C)cc4)c[nH]c3=O)ccc21 [Example 274], the inhibition at 0.1 µM was no less than 50%.
With CCn1c(=O)cc(C2CC2)c2cc(-n3c(-c4ccc(C)cc4)cn(C)c3=O)ccc21 [Example 275, 4-cyclopropyl-1-ethyl-6-(3-methyl-5-(4-methylphenyl)-2-oxo-2,3-dihydro-1H-imidazol-1-yl)quinolin-2(1H)-one] the inhibition at 0.1 µM was no less than 50%.
In the case of CCn1c(=O)cc(C2CC2)c2cc(-n3c(-c4ccc(C)cc4)c[nH]c3=O)ccc21 [Example 276, 4-cyclopropyl-1-ethyl-6-(5-(4-methylphenyl)-2-oxo-2,3-dihydro-1H-imidazol-1-yl)quinolin-2(1H)-one], the inhibition at 0.1 µM is reported as no less than 50%.
Compound CCn1c(=O)cc(C2CC2)c2cc(-c3cccnc3-c3ccccc3)ccc21 [Example 278, 4-cyclopropyl-1-ethyl-6-(2-phenylpyridin-3-yl)quinolin-2(1H)-one] has an inhibition at 0.1 µM of no less than 50%.
CCn1c(=O)cc(N2CCOCC2)c2cc(-c3cccnc3-c3ccccc3)ccc21 [Example 279, 1-ethyl-4-(morpholin-4-yl)-6-(2-phenylpyridin-3-yl)quinolin-2(1H)-one] gave an inhibition at 0.1 µM of no less than 50%.
Compound CCn1c(=O)cc(C2CC2)c2cc(N3C(=O)C(C)C(=O)N3c3ccccc3)ccc21 (stereo not drawn) [Example 280, 1-(4-cyclopropyl-1-ethyl-2-oxo-1,2-dihydroquinolin-6-yl)-4-methyl-2-phenylpyrazolidine-3,5-dione] has an inhibition at 0.1 µM of no less than 50%.
With CCC1C(=O)N(c2ccccc2)N(c2ccc3c(c2)c(C2CC2)cc(=O)n3CC)C1=O (stereo not drawn) [Example 281, 1-(4-cyclopropyl-1-ethyl-2-oxo-1,2-dihydroquinolin-6-yl)-4-ethyl-2-phenylmazolidine-3,5-dione] the inhibition at 0.1 µM was no less than 50%.
In the case of CCn1c(=O)cc(C2CC2)c2cc(-n3c(=O)cc(C)n3-c3ccccc3)ccc21 [Example 282a, 4-cyclopropyl-1-ethyl-6-(3-methyl-5-oxo-2-phenyl-2,5-dihydro-1H-pyrazol-1-yl)quinolin-2(1H)-one], the inhibition at 0.1 µM is reported as no less than 50%.
For CCn1c(=O)cc(C2CC2)c2cc(-n3c(C)cc(=O)n3-c3ccccc3)ccc21 [Example 282b, 4-cyclopropyl-1-ethyl-6-(5-methyl-3-oxo-2-phenyl-2,3-dihydro-1H-pyrazol-1-yl)quinolin-2(1H)-one], the inhibition at 0.1 µM was no less than 50%.
For CCn1c(=O)cc(C2CC2)c2cc(-c3nc(C)[nH]c3-c3ccccc3)ccc21 [Example 283, 4-cyclopropyl-1-ethyl-6-(2-methyl-5-phenyl-1H-imidazol-4-yl)quinolin-2(1H)-one], the inhibition at 0.1 µM was no less than 50%.
Compound CCn1c(=O)cc(C2CC2)c2cc(-c3nccnc3-c3ccccc3)ccc21 [Example 284, 4-cyclopropyl-1-ethyl-6-(3-phenylpyradin-2-yl)quinolin-2(1H)-one] has an inhibition at 0.1 µM of no less than 50%.
CCn1c(=O)cc(C2CCC(O)CC2)c2cc(C(=O)N(C)c3ccc(Cl)cc3)ccc21 (stereo not drawn) [Example 286, N-(4-chlorophenyl)-1-ethyl-4-(4-hydroxycyclohexyl)-N-methyl-2-oxo-1,2-dihydroquinoline-6-carboxamide] showed an inhibition at 0.1 µM of no less than 50%.
With CCn1c(=O)cc(C2CCN(C(C)=O)CC2)c2cc(C(=O)N(C)c3ccc(C)cc3)ccc21 [Example 290, 4-(1-acetylpiperidin-4-yl)-1-ethyl-N-methyl-N-(4-methylphenyl)-2-oxo-1,2-dihydroquinoline-6-carboxamide] the inhibition at 0.1 µM was no less than 50%.
In the case of CCn1c(=O)cc(C)c2cc(-c3cccnc3-c3ccccc3)ccc21 [Example 291, 1-ethyl-4-methyl-6-(2-phenylpyridin-3-yl)quinolin-2(1H)-one], the inhibition at 0.1 µM is reported as no less than 50%.
CCn1c(=O)cc(C2CCN(C)CC2)c2cc(C(=O)N(C)c3ccc(C)c(F)c3)ccc21 [Example 292, 1-ethyl-N-(3-fluoro-4-methylphenyl)-N-methyl-4-(1-methylpiperidin-4-yl)-2-oxo-1,2-dihydroquinoline-6-carboxamide] was tested, and the inhibition at 0.1 µM was no less than 50%.
CCn1c(=O)cc(C2CCN(C)CC2)c2cc(C(=O)N(C)c3ccc(C)c(Cl)c3)ccc21 [Example 293, N-(3-chloro-4-methylphenyl)-1-ethyl-N-methyl-4-(1-methylpiperidin-4-yl)-2-oxo-1,2-dihydroquinoline-6-carboxamide] was tested, and the inhibition at 0.1 µM was no less than 50%.
CCn1c(=O)cc(C2CCN(C)CC2)c2cc(C(=O)N(C)c3ccc(C)c(C)c3)ccc21 [Example 294, N-(3,4-dimethylphenyl)-1-ethyl-N-methyl-4-(1-methylpiperidin-4-yl)-2-oxo-1,2-dihydroquinoline-6-carboxamide] showed an inhibition at 0.1 µM of no less than 50%.

— US10696637B2, “Nitrogen-containing heterocyclic compound” (FUJIFILM Corporation, priority 2015, dated 2020)
